From patent US20160145247A1, “Aminomethyl-Biaryl Derivatives Complement Factor D inhibitors and uses thereof” (NOVARTIS AG, priority 2013, published 2016) come the findings set out here.

One may read the pIC50 as −log10 of the IC50, conventionally taken in molar units. The low end stands for a high IC50, the high end for a low IC50.

pIC50: −log10 of the molar value.

T1 sequence (P00746 26-253): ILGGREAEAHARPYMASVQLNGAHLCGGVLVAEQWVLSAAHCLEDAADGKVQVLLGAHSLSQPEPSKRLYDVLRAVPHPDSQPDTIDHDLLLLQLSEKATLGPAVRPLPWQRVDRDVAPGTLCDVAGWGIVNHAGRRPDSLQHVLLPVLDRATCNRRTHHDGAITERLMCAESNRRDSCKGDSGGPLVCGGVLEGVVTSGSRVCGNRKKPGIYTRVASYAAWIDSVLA

The test concerns the target T1, factor D (Homo sapiens, UniProt P00746).
T1 construct: made in house; host or cells: E. coli
Put plainly: factor D inhibition assay of Biological Example 2. Format: biochemical.
Regarding `Nc1cc(-c2cccc([C@H](N)CO)c2)cc(COc2ccccc2CC(=O)O)c1F` [155 a), (S)-2-(2-((5-Amino-3′-(1-amino-2-hydroxyethyl)-4-fluoro-[1,1′-biphenyl]-3-yl)methoxy)phenyl)acetic acid], the pIC50 was 8.52.
The value for `NCc1cccc(-c2cccc(COc3c(Br)cccc3CC(=O)O)c2)c1` [Example 174, 2-(2-((3′-(Aminomethyl)-[1,1′-biphenyl]-3-yl)methoxy)-3-bromophenyl)acetic acid] was 6.95; that for `N[C@H](CO)c1cccc(-c2cccc(COc3ccccc3CC(=O)O)c2F)c1` [Example 123, (S)-2-(2-((3′-(1-Amino-2-hydroxyethyl)-2-fluoro-[1,1′-biphenyl]-3-yl)methoxy)phenyl)acetic acid] was 6.51; that for `CCOC(=O)Cc1ccccc1OCc1cccc(-c2cccc([C@H](N)CO)c2)c1` [Example 268-C, (S)-Ethyl 2-(2-((3′-(1-amino-2-hydroxyethyl)-[1,1′-biphenyl]-3-yl)methoxy)phenyl)acetate] was 4.26.
The value for `NCc1cccc(-c2cc(NCC(F)(F)F)cc(C(=O)Nc3ccccc3CC(=O)O)n2)c1` [Example 54, 2-(2-(6-(3-(Aminomethyl)phenyl)-4-((2,2,2-trifluoroethyl)amino)picolinamido)phenyl)acetic acid] was 8.52; that for `C[C@@H](N)c1cccc(-c2cc(COc3ccccc3CC(=O)O)cc(OCc3nccs3)c2)c1F` [Example 214-B] was 8.30.
The value for `NCc1cccc(-c2cc(OCc3ncccn3)cc(C(=O)Nc3ccccc3CC(=O)O)c2)c1` [Example 61-B, 2-(2-(3′-(Aminomethyl)-5-(pyrimidin-2-ylmethoxy)-[1,1′-biphenyl]-3-ylcarboxamido)phenyl)acetic acid] was 7.49; that for `C[C@@H](N)c1cccc(-c2cc(COc3ccccc3CC(=O)O)cc(OCC3CCCCO3)c2)c1F` (stereo partly drawn) [Example 264, 2-(2-((3′-((R)-1-aminoethyl)-2′-fluoro-5-((tetrahydro-2H-pyran-2-yl)methoxy)-[1,1′-biphenyl]-3-yl)methoxy)phenyl)acetic acid] was 7.82; that for `O=C(O)Cc1ccccc1OCc1cccc(-c2cccc(-c3ncc[nH]3)c2)c1` [Example 138-F] was 5.66.
In turn, `CCc1ccc(NC(=O)c2cccc(-c3cc(F)cc(CN)c3)n2)c(CC(=O)O)c1` [Example 21-L] showed a pIC50 of 6.98.
The value for `COc1cccc(CC(=O)O)c1NC(=O)c1cccc(-c2cc(F)cc(CN)c2)c1` [Example 21-K] was 6.90.
The result for `CC(C)C(=O)Nc1cc(C(=O)Nc2ccccc2CC(=O)O)cc(-c2cc(F)cc(CN)c2)c1` [Example 97, 2-(2-(3′-(Aminomethyl)-5′-fluoro-5-isobutyramido-[1,1′-biphenyl]-3-ylcarboxamido)phenyl)acetic acid] reads 7.35; that for `C[C@@H](N)c1cccc(-c2ccc3c(c2)N(Cc2ccccc2CC(=O)O)CCC3)c1F` [Example 219-D, (R)-2-(2-((7-(3-(1-Aminoethyl)-2-fluorophenyl)-3,4-dihydroquinolin-1(2H)-yl)methyl)phenyl)acetic acid], 7.21.
The value for `CC(C)Nc1cc(COc2ccccc2CC(=O)O)cc(-c2cccc([C@@H](C)N)c2F)c1` [Example 152, (R)-2-(2-((3′-(1-aminoethyl)-2′-fluoro-5-(isopropylamino)-[1,1′-biphenyl]-3-yl)methoxy)phenyl)acetic acid] was 7.96.
The compound `C[C@@H](N)c1cccc(-c2cc(COc3ccccc3CC(=O)O)cc(NCC3CC3)c2)c1F` [Example 150-C, (R)-2-(2-((3′-(1-Aminoethyl)-5-((cyclopropylmethyl)amino)-2′-fluoro-[1,1′-biphenyl]-3-yl)methoxy)phenyl)acetic acid] showed a negative logarithm of the IC50 (pIC50) of 8.40.
The result for `NCc1cc(F)cc(-c2cc(NC[C@H]3CCCO3)cc(C(=O)Nc3ccccc3CC(=O)O)c2)c1` [Example 14-D] reads 7.68; that for `COCc1cc(COc2ccccc2CC(=O)O)cc(-c2cccc([C@@H](C)N)c2)c1` [Example 120-C], 8.52; that for `NC(CF)c1cccc(-c2cc(CNCC(F)(F)F)cc(COc3ccccc3CC(=O)O)c2)c1F` (stereo not shown) [Example 285-A], 7.46.
The value for `CC(=O)N(C)c1cc(COc2ccccc2CC(=O)O)cc(-c2cccc([C@@H](C)N)c2F)c1` [Example 229, (R)-2-(2-((3′-(1-aminoethyl)-2′-fluoro-5-(N-methylacetamido)-[1,1′-biphenyl]-3-yl)methoxy)phenyl)acetic acid] was 6.97; that for `CCC[C@@H](N)c1cccc(-c2cc(COc3ccccc3CC(=O)O)cc(NC[C@@H]3CCCO3)c2)c1F` [Example 199-C] was 7.19; that for `C[C@@H](N)c1cccc(-c2cc(COc3ccccc3CC(=O)O)cc(CN3CCCOCC3)c2)c1F` [Example 216-AI] was 7.62.
The result for `CC(O)c1cc(COc2ccccc2CC(=O)O)cc(-c2cccc([C@H](N)CO)c2)c1` (single isomer, unassigned) [116-E b) (tr = 3.8 min)] reads 7.96.
The compound `N[C@H](CO)c1cccc(-c2cc(F)cc(COc3ccccc3CC(=O)O)c2)c1` [Example 115-A] had a pIC50 of 8.52.
The result for `Cc1c(-c2cccc(COc3ccccc3CC(=O)O)c2)cccc1[C@H](N)CO` [Example 142-C] reads 4.30.
Consider `N[C@H](CO)c1cccc(-c2cc(COc3ccccc3CC(=O)O)cc(C(O)C(F)(F)F)c2)c1` (single isomer, unassigned) [116-G b) (tr = 3.4 min)], for which the pIC50 is 8.05.
The value for `NCc1cc(F)cc(-c2cc(O)cc(C(=O)Nc3ccccc3CC(=O)O)c2)c1` [Example 60, 2-(2-(3′-(Aminomethyl)-5′-fluoro-5-hydroxy-[1,1′-biphenyl]-3-ylcarboxamido)phenyl)acetic acid] was 7.33.
The value for `NCc1cccc(-c2ccnc(COc3ccccc3CC(=O)O)c2)c1` [Example 164, 2-(2-((4-(3-(Aminomethyl)phenyl)pyridin-2-yl)methoxy)phenyl)acetic acid] was 7.89.
The value for `NC(CF)c1cccc(-c2cc(CCc3ccncc3)cc(COc3ccccc3CC(=O)O)c2)c1F` (stereo not shown) [Example 216-Q] was 7.92.
For the compound `N#Cc1ccc(CC(=O)O)c(OCc2cccc(-c3cccc(CN)c3)c2)c1` [Example 294-B], the pIC50 is 7.40. Against the preceding compound, the pIC50 is 0.52 log units lower.
The value for `C[C@@H](N)c1cccc(-c2cc(COCC(F)(F)F)cc(COc3ccccc3CC(=O)O)c2)c1F` [Example 120-M] was 7.96; that for `Cc1ccc(S(=O)(=O)n2ncc3c(COc4ccccc4CC(=O)O)cc(-c4cccc([C@H](N)CO)c4)cc32)cc1` [Example 186, (S)-2-(2-((6-(3-(1-Amino-2-hydroxyethyl)phenyl)-1-tosyl-1H-indazol-4-yl)methoxy)phenyl)acetic acid] was 7.85; that for `NCc1cccc(-c2nc(C(=O)Nc3ccccc3CC(=O)O)c[nH]2)c1` [Example 43, 2-(2-(2-(3-(Aminomethyl)phenyl)-1H-imidazole-4-carboxamido)phenyl)acetic acid] was 5.95.
For the compound `C[C@@H](N)c1cccc(-c2cc(COc3ccccc3CC(=O)O)cc(OCc3ccn(C)n3)c2)c1F` [Example 214-E], the pIC50 was 8.10.
The value for `CCOC(=O)Cc1ccccc1NC(=O)c1cc(NC(C)=O)cc(-c2cc(F)cc(CN)c2)c1` [Example 67-C, Ethyl 2-(2-(5-acetamido-3′-(aminomethyl)-5′-fluoro-[1,1′-biphenyl]-3-ylcarboxamido)phenyl)acetate] was 5.53; that for `NCc1cccc(-c2cc(NC3CC3)cc(C(=O)Nc3ccccc3CC(=O)O)n2)c1` [Example 50, 2-(2-(6-(3-(aminomethyl)phenyl)-4-(cyclopropylamino)picolinamido)phenyl)acetic acid] was 8.70.
In turn, `N[C@H](CO)c1cccc(-c2cc(COc3ccccc3CC(=O)O)cc(C(F)(F)F)c2)c1` [Example 114-B, (S)-2-(2-((3′-(1-Amino-2-hydroxyethyl)-5-(trifluoromethyl)-[1,1′-biphenyl]-3-yl)methoxy)phenyl)acetic acid] gave a pIC50 of 8.22.
For `C[C@@H](N)c1cccc(-c2cc(COc3ccccc3CC(=O)O)cc(CN3CCCC3)c2)c1F` [Example 216-AJ], the pIC50 is 6.34.
The value for `CC(C)CC(=O)Nc1cc(C(=O)Nc2ccccc2CC(=O)O)cc(-c2cc(F)cc(CN)c2)c1` [Example 98, 2-(2-(3′-(Aminomethyl)-5′-fluoro-5-(3-methylbutanamido)-[1,1′-biphenyl]-3-ylcarboxamido)phenyl)acetic acid] was 8.40; that for `N[C@H](CO)c1cccc(-c2cc(COc3ccccc3CC(=O)O)cc(C(O)C(F)(F)F)c2)c1` (single isomer, unassigned) [116-G b) (tr = 2.1 min)] was 7.96; that for `COCCNc1cc(C(=O)Nc2ccccc2CC(=O)O)cc(-c2cc(F)cc(CN)c2)c1` [Example 14-E] was 8.00.
`C[C@H](N)c1cccc(-c2cc(COc3ccccc3CC(=O)O)cc(OCc3cncn3C)c2)c1F` [Example 214-P] had a pIC50 of 7.85.
The value for `NCc1cccc(-c2ccc3c(c2)C(Oc2ccccc2CC(=O)O)CCO3)c1` (single isomer, unassigned) [177 b) (tr = 3.2 min), (+) or (−)-2-(2-((6-(3-(aminomethyl)phenyl)chroman-4-yl)oxy)phenyl)acetic acid] was 8.40; that for `N[C@H](CCO)c1cccc(-c2cccc(COc3ccccc3CC(=O)O)c2)c1F` [Example 190-J] was 7.89; that for `NCc1cccc(-c2cc(COc3ccccc3CC(=O)O)cc(C(NC(=O)c3ccccc3)C(F)(F)F)c2)c1` (stereo not shown) [Example 208-D] was 8.40.
The result for `CC(Oc1ccccc1CC(=O)O)c1cccc(-c2cccc(CN)c2)c1` (racemic) [Example 163, (±)-2-(2-(1-(3′-(aminomethyl)-[1,1′-biphenyl]-3-yl)ethoxy)phenyl)acetic acid] reads 7.21.
For the compound `C[C@@H](N)c1cccc(-c2cc(COc3ccccc3CC(=O)O)cc(OC[C@H]3CCCO3)c2)n1` [Example 235, 2-(2-((3-(6-((R)-1-aminoethyl)pyridin-2-yl)-5-(((R)-tetrahydrofuran-2-yl)methoxy)benzyl)oxy)phenyl)acetic acid], the pIC50 is 7.47.
